For experiment [1], the target named is His6-TEV-PDGFRβ (557-1016) (Homo sapiens (Human), UniProt P09619). In words: PDGFRβ HTRF Assay. Type of experiment: biochemical. The following applies: read-out: PDGFR HTRF IC50. In short, it runs like this: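 Human PDGFRβ (557-1016) pre-incubated with compound for 30 min at RT in pH 7.5 HEPES/MgCl2/EGTA/Brij-35/DTT buffer. Reaction started with ATP and TK-biotin peptide, run 3 h at RT, then quenched with EDTA-containing Eu-cryptate antibody/streptavidin-XL665. HTRF 665/620 nm ratio read after 60 min; percent inhibition relative to DMSO and 10 μM imatinib controls.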
Sequence of His6-TEV-PDGFRβ (557-1016) (P09619 557-1016): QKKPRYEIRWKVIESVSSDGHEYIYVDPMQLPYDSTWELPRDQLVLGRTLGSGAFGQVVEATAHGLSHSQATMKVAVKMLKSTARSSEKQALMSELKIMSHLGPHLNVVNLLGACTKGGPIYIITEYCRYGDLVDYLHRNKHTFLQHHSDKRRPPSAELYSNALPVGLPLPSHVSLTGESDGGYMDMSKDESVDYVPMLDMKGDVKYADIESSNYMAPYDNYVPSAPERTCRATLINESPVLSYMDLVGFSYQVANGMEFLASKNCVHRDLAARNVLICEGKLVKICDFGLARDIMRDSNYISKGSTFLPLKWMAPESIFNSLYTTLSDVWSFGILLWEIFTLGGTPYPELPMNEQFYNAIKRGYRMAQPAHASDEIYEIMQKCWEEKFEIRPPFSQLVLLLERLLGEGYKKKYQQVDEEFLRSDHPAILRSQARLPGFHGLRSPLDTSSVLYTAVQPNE

The target in the next experiment is VEGFR2, unphosphorylated (Homo sapiens (Human), UniProt P35968). In words: VEGFR ADP GLO Assay. Type of experiment: biochemical.
Sequence of VEGFR2, unphosphorylated (P35968 20-1356): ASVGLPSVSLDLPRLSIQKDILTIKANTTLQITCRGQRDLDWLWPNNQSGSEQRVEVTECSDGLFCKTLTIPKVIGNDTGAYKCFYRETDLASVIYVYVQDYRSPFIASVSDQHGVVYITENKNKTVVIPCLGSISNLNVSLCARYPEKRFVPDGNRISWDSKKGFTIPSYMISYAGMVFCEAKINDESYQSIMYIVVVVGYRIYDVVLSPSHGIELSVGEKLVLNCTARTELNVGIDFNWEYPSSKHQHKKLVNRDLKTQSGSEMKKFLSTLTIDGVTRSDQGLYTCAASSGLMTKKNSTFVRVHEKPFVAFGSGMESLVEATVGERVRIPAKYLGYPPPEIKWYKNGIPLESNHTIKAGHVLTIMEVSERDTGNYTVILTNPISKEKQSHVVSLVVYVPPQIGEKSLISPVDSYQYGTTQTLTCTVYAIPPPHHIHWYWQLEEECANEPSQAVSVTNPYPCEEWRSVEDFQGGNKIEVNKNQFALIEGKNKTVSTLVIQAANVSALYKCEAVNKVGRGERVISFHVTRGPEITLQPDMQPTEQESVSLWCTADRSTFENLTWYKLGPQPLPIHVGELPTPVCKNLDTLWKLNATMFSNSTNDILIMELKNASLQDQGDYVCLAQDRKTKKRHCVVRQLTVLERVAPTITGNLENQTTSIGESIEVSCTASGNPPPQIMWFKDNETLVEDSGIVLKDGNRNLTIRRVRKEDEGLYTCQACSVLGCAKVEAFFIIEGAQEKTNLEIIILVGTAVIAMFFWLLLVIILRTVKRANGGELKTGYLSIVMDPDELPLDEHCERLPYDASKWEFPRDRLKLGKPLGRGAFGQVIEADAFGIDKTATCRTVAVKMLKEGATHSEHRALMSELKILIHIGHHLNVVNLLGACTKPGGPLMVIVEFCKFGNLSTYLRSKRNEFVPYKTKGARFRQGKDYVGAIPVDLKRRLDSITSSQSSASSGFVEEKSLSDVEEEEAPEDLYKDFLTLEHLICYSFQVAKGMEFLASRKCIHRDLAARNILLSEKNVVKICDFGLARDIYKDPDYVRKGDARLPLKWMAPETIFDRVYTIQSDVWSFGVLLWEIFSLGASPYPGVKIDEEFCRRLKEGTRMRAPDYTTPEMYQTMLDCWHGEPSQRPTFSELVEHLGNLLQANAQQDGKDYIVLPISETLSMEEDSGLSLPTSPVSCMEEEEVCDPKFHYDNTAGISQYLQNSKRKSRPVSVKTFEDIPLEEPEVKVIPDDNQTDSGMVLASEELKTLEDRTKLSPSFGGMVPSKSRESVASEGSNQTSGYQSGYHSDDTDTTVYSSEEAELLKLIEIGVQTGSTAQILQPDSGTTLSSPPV

The text below walks through data of patent US20240109917A1 (ACTELION PHARMACEUTICALS LTD, priority 2020, published 2024).

A value given as a limit tells only on which side of the number the result lay.

Consider `COc1cc(-c2cn3ncc(C(=O)Nc4cc(NC(=O)CN5CC(C)(C)C5)cnc4C)c3s2)c(OC)nn1` [Example 393, 2-(3,6-dimethoxypyridazin-4-yl)-N-(5-(2-(3,3-dimethylazetidin-1-1)acetamido)-2-methylpyridin-3-yl)pyrazolo[5,1-b]thiazole-7-carboxamide], for which the IC50 in experiment [1] was 0.7 nM; at VEGFR2, unphosphorylated, > 7500 nM.
For `COc1cnccc1-c1cn2ncc(C(=O)Nc3cc(NC(=O)CN4CC(C)(C)C4)cnc3C)c2s1` [Example 399, N-(5-(2-(3,3-dimethylazetidin-1-yl)acetamido)-2-methylpyridin-3-yl)-2-(3-methoxypyridin-4-yl)pyrazolo[5,1-b]thiazole-7-carboxamide] the same measures were 0.2 nM and 4770 nM.
For `Cc1ncc(NC(=O)CN2CCC[C@@H]2C)cc1NC(=O)c1cnn2cc(-c3cnn(C)c3)sc12` [Example 27, (S)-2-(1-methyl-1H-pyrazol-4-yl)-N-(2-methyl-5-(2-(2-methyl-pyrrolidin-1-yl)acetamido)pyridin-3-yl)pyrazolo[5,1-b]thiazole-7-carboxamide] the same measures were 0.9 nM and > 7500 nM.
In the same order, the values of `COc1ncc(-c2cn3ncc(C(=O)Nc4cc(NC(=O)CN5CC(C)(C)C5)cnc4C)c3s2)c(OC)n1` [Example 392, 2-(2,4-dimethoxypyrimidin-5-yl)-N-(5-(2-(3,3-dimethylazetidin-1-yl)acetamido)-2-methylpyridin-3-yl)pyrazolo[5,1-b]thiazole-7-carboxamide] are 0.5 nM and 7440 nM.
As for `Cc1ncc(NC(=O)CN2CC(C)(C)C2)cc1NC(=O)c1cnn2cc(-c3cncnc3C)sc12` [Example 398, N-(5-(2-(3,3-dimethylazetidin-1-yl)acetamido)-2-methylpyridin-3-yl)-2-(4-methylpyrimidin-5-yl)pyrazolo[5,1-b]thiazole-7-carboxamide], the IC50 in experiment [1] is 6.8 nM; against VEGFR2, unphosphorylated it was > 7500 nM.
With `COCCCc1cn2ncc(C(=O)Nc3cc(C(=O)NCCN4CCCC4(C)C)cnc3C)c2s1` [Example 360, N-(5-((2-(2,2-dimethylpyrrolidin-1-yl)ethyl)carbamoyl)-2-methylpyridin-3-yl)-2-(3-methoxypropyl)pyrazolo[5,1-b]thiazole-7-carboxamide], the IC50 in experiment [1] is 4.9 nM; at VEGFR2, unphosphorylated it was > 7500 nM.
Regarding `COc1ncccc1-c1cn2ncc(C(=O)Nc3cc(NC(=O)CN4CC5(COC5)C4)cnc3C)c2s1` [Example 404, N-(5-(2-(2-oxa-6-azaspiro[3.3]heptan-6-yl)acetamido)-2-methylpyridin-3-yl)-2-(2-methoxypyridin-3-yl)pyrazolo[5,1-b]thiazole-7-carboxamide], the IC50 in experiment [1] is 0.3 nM; against VEGFR2, unphosphorylated it was > 7500 nM.
`COCCn1cc(-c2cn3ncc(C(=O)Nc4cc(NC(=O)CN5CCC(C6CC6)C5)cnc4C)c3s2)cn1` (stereo not drawn) [Example 341, N-(5-(2-(3-cyclopropylpyrrolidin-1-yl)acetamido)-2-methylpyridin-3-yl)-2-(1-(2-methoxyethyl)-1H-pyrazol-4-yl)pyrazolo[5,1-b]thiazole-7-carboxamide]: the IC50 in experiment [1] is 0.4 nM; at VEGFR2, unphosphorylated, > 7500 nM.
For `Cc1ncc(NC(=O)CN2CCC23CCC3)cc1NC(=O)c1cnn2cc(-c3ccnc(N4CCOCC4)c3)sc12` [Example 353, N-(5-(2-(1-azaspiro[3.3]heptan-1-yl)acetamido)-2-methylpyridin-3-yl)-2-(2-morpholinopyridin-4-yl)pyrazolo[5,1-b]thiazole-7-carboxamide], the IC50 in experiment [1] is 0.2 nM; on VEGFR2, unphosphorylated, > 7500 nM.
For `COCCn1cc(-c2cn3ncc(C(=O)Nc4cc(NC(=O)[C@H]5CCCN5C(C)C)cnc4C)c3s2)cn1` [Example 344, (R)—N-(5-(1-isopropylpyrrolidine-2-carboxamido)-2-methylpyridin-3-yl)-2-(1-(2-methoxyethyl)-1H-pyrazol-4-yl)pyrazolo[5,1-b]thiazole-7-carboxamide] the same measures were 4.3 nM and > 7500 nM.
In the same order, the values of `COc1ncccc1-c1cn2ncc(C(=O)Nc3cc(NC(=O)CN4CC(C)(OC)C4)cnc3C)c2s1` [Example 396, N-(5-(2-(3-methoxy-3-methylazetidin-1-yl)acetamido)-2-methylpyridin-3-yl)-2-(2-methoxypyridin-3-yl)pyrazolo[5,1-b]thiazole-7-carboxamide] are 0.3 nM and > 7500 nM.
In the same order, the values of `COc1ncccc1-c1cn2ncc(C(=O)Nc3cc(NC(=O)CN4C[C@@H](CO)OC(C)(C)C4)cnc3C)c2s1` [Example 380, (S)—N-(5-(2-(6-(hydroxymethyl)-2,2-dimethylmorpholino)acetamido)-2-methylpyridin-3-yl)-2-(2-methoxypyridin-3-yl)pyrazolo[5,1-b]thiazole-7-carboxamide] are 0.4 nM and > 2500 nM.
With `Cc1ncc(NC(=O)C2CN(C(C)C)C2)cc1NC(=O)c1cnn2cc(-c3cnn(C)c3C)sc12` [Example 357, 2-(1,5-dimethyl-1H-pyrazol-4-yl)-N-(5-(1-isopropylazetidine-3-carboxamido)-2-methylpyridin-3-yl)pyrazolo[5,1-b]thiazole-7-carboxamide], the IC50 is 0.2 nM in experiment [1] and > 7500 nM at VEGFR2, unphosphorylated.
For the molecule `CCc1ncccc1-c1cn2ncc(C(=O)Nc3cc(NC(=O)CN4CC(C)(C)C4)cnc3C)c2s1` [Example 391, N-(5-(2-(3,3-dimethylazetidin-1-yl)acetamido)-2-methylpyridin-3-yl)-2-(2-ethylpyridin-3-yl)pyrazolo[5,1-b]thiazole-7-carboxamide], the IC50 was 0.9 nM in experiment [1] and > 7500 nM against VEGFR2, unphosphorylated.
For `COc1ncccc1-c1cn2ncc(C(=O)Nc3cc(NC(=O)CN4CC(C)(C)C4)cnc3C)c2s1` [Example 369, N-(5-(2-(3,3-dimethylazetidin-1-yl)acetamido)-2-methylpyridin-3-yl)-2-(2-methoxypyridin-3-yl)pyrazolo[5,1-b]thiazole-7-carboxamide] the same measures were 0.2 nM and > 7500 nM.
Regarding `Cc1ncc(NC(=O)CN2C[C@@H](CO)O[C@@H](C)C2)cc1NC(=O)c1cnn2cc(-c3cnn(C)c3)sc12` (relative stereo) [Example 378, N-(5-(2-(cis-2-(hydroxymethyl)-6-methylmorpholino)acetamido)-2-methylpyridin-3-yl)-2-(1-methyl-1H-pyrazol-4-yl)pyrazolo[5,1-b]thiazole-7-carboxamide], the 50% inhibitory concentration (IC50) in experiment [1] is 0.8 nM; on VEGFR2, unphosphorylated, > 2500 nM.
For `Cc1ncc(NC(=O)C2CCN(C(C)C)C2)cc1NC(=O)c1cnn2cc(-c3cn(C)nc3C)sc12` (stereo not drawn) [Example 355, 2-(1,3-dimethyl-1H-pyrazol-4-yl)-N-(5-(1-isopropylpyrrolidine-3-carboxamido)-2-methylpyridin-3-yl)pyrazolo[5,1-b]thiazole-7-carboxamide] the same measures were 0.4 nM and > 7500 nM.
For `COc1ncccc1-c1cn2ncc(C(=O)Nc3cc(NC(=O)CN4CC5(CCOCC5)C4)cnc3C)c2s1` [Example 403, N-(5-(2-(7-oxa-2-azaspiro[3.5]nonan-2-yl)acetamido)-2-methylpyridin-3-yl)-2-(2-methoxypyridin-3-yl)pyrazolo[5,1-b]thiazole-7-carboxamide carboxamide] the same measures were 0.2 nM and > 7500 nM.
In the same order, the values of `Cc1ncc(NC(=O)CN2C[C@H](C)O[C@@H](C)C2)cc1NC(=O)c1cnn2cc(-c3c(C)n[nH]c3C)sc12` (relative stereo) [Example 373, 2-(3,5-dimethyl-1H-pyrazol-4-yl)-N-(5-(2-(trans-2,6-dimethylmorpholino)acetamido)-2-methylpyridin-3-yl)pyrazolo[5,1-b]thiazole-7-carboxamide] are 1.3 nM and > 7500 nM.
For the molecule `COCC1CN(CC(=O)Nc2cnc(C)c(NC(=O)c3cnn4cc(-c5cnn(C)c5)sc34)c2)CC(C)(C)O1` (stereo not drawn) [Example 383, N-(5-(2-(6-(methoxymethyl)-2,2-dimethylmorpholino)acetamido)-2-methylpyridin-3-yl)-2-(1-methyl-1H-pyrazol-4-yl)pyrazolo[5,1-b]thiazole-7-carboxamide], the 50% inhibitory concentration (IC50) in experiment [1] was 1 nM; against VEGFR2, unphosphorylated, > 2500 nM.
In the same order, the values of `Cc1ncc(NC(=O)CN2C[C@H](C)O[C@@H](C)C2)cc1NC(=O)c1cnn2cc(-c3cnn(C4CC4)c3)sc12` (relative stereo) [Example 382, 2-(1-cyclopropyl-1H-pyrazol-4-yl)-N-(5-(2-(trans-2,6-dimethylmorpholino)acetamido)-2-methylpyridin-3-yl)pyrazolo[5,1-b]thiazole-7-carboxamide] are 0.6 nM and > 2500 nM.
As to `COCCn1cc(-c2cn3ncc(C(=O)Nc4cc(NC(=O)CN5CCCC56CCC6)cnc4C)c3s2)cn1` [Example 332, N-(5-(2-(5-azaspiro[3.4]octan-5-yl)acetamido)-2-methylpyridin-3-yl)-2-(1-(2-methoxyethyl)-1H-pyrazol-4-yl)pyrazolo[5,1-b]thiazole-7-carboxamide], the IC50 in experiment [1] was 0.6 nM; against VEGFR2, unphosphorylated it was > 7500 nM.
For `COc1ncccc1-c1cn2ncc(C(=O)Nc3cc(NC(=O)CN4C[C@H](C)O[C@@H](C)C4)cnc3C)c2s1` (relative stereo) [Example 368, N-(5-(2-(trans-2,6-dimethylmorpholino)acetamido)-2-methylpyridin-3-yl)-2-(2-methoxypyridin-3-yl)pyrazolo[5,1-b]thiazole-7-carboxamide], the IC50 was 0.3 nM in experiment [1] and > 7500 nM against VEGFR2, unphosphorylated.
In the same order, the values of `COCCn1cc(-c2cn3ncc(C(=O)Nc4cc(NC(=O)CN5CCCC5)cnc4C)c3s2)cn1` [Example 337, 2-(1-(2-methoxyethyl)-1H-pyrazol-4-yl)-N-(2-methyl-5-(2-(pyrrolidin-1-yl)acetamido)pyridin-3-yl)pyrazolo[5,1-b]thiazole-7-carboxamide] are 1.8 nM and > 7500 nM.
